{"source": "paper PMC4683533", "about": "“Discovery of novel INK4C small-molecule inhibitors to promote human and murine hematopoietic stem cell ex vivo expansion” (Scientific Reports, 2015)", "key": {"[1]": {"system": "c-Kit-enriched mouse BM cells (HSPC, LT-HSCs)", "assay": "ex vivo bulk culture of c-Kit-enriched BM cells with flow cytometry phenotyping", "type": "cell-based", "conditions": "5 days culture with cytokines", "description": "To investigate the effect of p18SMI compounds on murine HSCs, c-Kit-enriched mouse BM cells were cultured for 5 days with media containing cytokines and the p18SMI compounds. […] Lin^−Sca-1^+(LS) cells were further analyzed using a combination of CD150 and CD48 (SLAM code) biomarkers for HSC identification. CD150^+ CD48^−KSLs (hereafter referred to as SLAM^+) cells are enriched for long term (LT)-HSCs.\nHSCs expansion medium consists of BIT9500 (Stem Cell Technologies) supplemented with 50 ng/mL recombinant mouse (rm) SCF, 20 ng/mL FMS-like tyrosine kinase 3 ligand (Flt3L) and 10 ng/mL thrombopoietin (Tpo) (all from PeproTech, Inc.). p18SMI compounds were added where indicated. Bone marrow cells were harvested from C57BL/6 mice and made into a single-cell suspension. After immunomagnetic c-Kit enrichment (cKit-conjugated microbeads [MiltenyiBiotec, Bergisch-Gladbach]), cells were washed and resuspended in HSCs expansion medium. After culture, total nucleated cell counts were obtained, and a fraction of mononuclear cells (MNCs) or whole bone marrow cells were stained for flow cytometry analysis. Frequency of each cell population was determined by independently analyzing more than 5 × 10^5 cells per sample in triplicate.\nFor stem-cell quantitation, the cultured bone marrow nucleated cells were co-stained with a combination of PE-Cy7 labeled antibodies against mouse CD3, CD4, CD8, B220, Gr-1, Mac-1 and TER-119, anti-Sca-1-PercpCy5.5, anti-CD48-PE and anti-CD150-APC (all from Biolegend). DAPI was used for dead-cell discrimination. Due to the presence of cytokine stem cell factor (SCF), we could not detect the c-Kit marker of those cultured cells. […] Flow cytometry and flow sorting were conducted with a CyAn (DakoCytomation) or a FACSCalibur system (BD Biosciences). FlowJo software Version 7.6.2 (TreeStar) was used for data analysis."}, "HSCs (bone marrow MNCs)": {"system": "HSCs (bone marrow MNCs)", "assay": "cobblestone area forming cells (CAFC) assay with limiting dilution assay (LDA)", "type": "cell-based, mouse", "conditions": "day 35", "description": "We also investigated whether the increased number of phenotypic SLAM^+LT-HSCs in short-term culture assays was correlated with an increase in functional LT-HSCs. Cobblestone area forming cells (CAFC) assay combined with limiting-dilution assays (LDA) were performed to measure the frequency of HSCs[19][22][30]. Compared with the control group (HSC frequency is 1 in 112,559 of the original plated cells), the frequency of HSC at day 35 (indicating the activity of hematopoietic reconstitution capacity) was 2.7-fold and 3.0-fold higher in the cultures treated with XIE18–6 (HSC frequency is 1 in 42,490 of the original plated cells) and compound 40 (HSC frequency is 1 in 37,524 of the original plated cells) (p < 0.001, Fig. 3C), respectively.\nFreshly isolated bone marrow MNCs from mice, 6–8 weeks old, were plated in a 24-well plate with 1 mL Dexter’s medium at a density of 2 × 10^6 cells per mL in the absence or presence of different doses of the tested compounds. The culture was maintained at 33 °C with 5% CO2. The number of cobblestone areas (CAs) was counted weekly. The medium was also replaced with half fresh medium on a weekly basis. For the limiting dilution analysis (LDA) of the test cells, different limiting doses were plated on the irradiated stromal cells in 96-well plates containing 200 μL of M5300 medium (StemCell Technologies) supplemented with 10^−6 M hydrocortisone. Each group was done with 20 replicates well. Small-molecule compounds were added to the co-culture system at different doses. Half of the medium in each well was replaced with fresh medium containing the test compounds weekly. The existence of CA in each well was evaluated under an inverted microscope at weekly intervals for 5 weeks. Based on the Poisson distribution of the negative wells, the frequency of long-term initiating cells was calculated with L-Calc software (StemCell Technologies)."}, "[2]": {"system": "human cord blood CD34+ cells (CD34+CD49f+ cells)", "assay": "human cord blood CD34+ cell ex vivo culture and screen", "type": "cell-based", "description": "Based on our study of murine HSCs, we further tested whether these p18SMIs could expand human cord blood CD34^+ cells in ex vivo culture. […] We cultured human cord blood CD34^+ cells for 7 days in HSCs expansion media in the presence of 200 nM of p18SMIs, and then analyzed the percentage and absolute number of CD34^+CD49f^+ cells by flow cytometry. We screened 40 p18SMIs, of which14 compounds could increase the number of CD34^+CD49f^+ cells compared with the control group (Fig. S6). […] Then we conducted a concentration gradient assay on top three p18SMIs with ED50 less than 10 nM (compounds 22, 40 and 41). […] Only in specific doses could they show their expansion effect on human HSCs (Fig. 4B).\nHuman cord blood samples were collected from consenting donors according to ethically approved procedures at Tianjin Central Hospital of Gynecology Obstetrics (Tianjin, China), under a protocol approved by the Ethical Committee on Medical Research at the Institute of Hematology. Human CD34^+ cord blood cells were isolated using human CD34 MicroBead Kit (MiltenyiBiotec) according to the manufacturer’s protocol after settling red cells with HES and red cells lysis with ACK Lysis Buffer.\nHuman CD34^+ cells were cultured in expansion medium consisting of StemSpan SFEM (StemCell Technologies) supplemented with 100 ng/mL human stem cell factor (SCF, PeproTech), 50 ng/mL human thrombopoietin (TPO, PeproTech), 100 ng/mL human FMS-like trysine kinase 3 ligand (Flt3L, PeproTech). Human CD34^+ cells were resuspended in expansion medium (5 × 10^4 cells/mL) before being aliquoted in 96-well plates (Costar, Corning Incorporated). Compounds, all with a final concentration of 200 nM, were dissolved in DMSO and added immediately in cell suspension after plating. The final concentration of DMSO in the control group was the same as in the compounds-treated group. Cells were cultured at 37 °C in 5% CO2. Based on the results of primary screening upon human cells and the results of ED50, we chose three compounds for further experiments. The expansion medium was changed to StemSpan SFEM (StemCell Technologies) supplemented with 100 ng/mL human stem cell factor (SCF, PeproTech), 100 ng/mL human thrombopoietin (TPO, PeproTech), 100 ng/mL human FMS-like trysine kinase 3 ligand (Flt3L, PeproTech) and 100 ng/mL human interleukin-6 (IL-6, PeproTech) for better expansion effect. The incubation condition was consistent with before.\nPhenotypes analysis of cultured cells was performed on a BD FACS Array (Becton Dickinson Biosciences) using a combination of the following antibodies: APC anti-CD34 (BD Biosciences), PE anti-CD49f (BD Biosciences). Stained cells were washed once with PBS and then measured and analyzed on an FACS analyzer (FACSArray, BD Biosciences)."}}}
{"smiles": "O=C([O-])c1ccc(S(=O)(=O)NC2CCCCC2)cc1.[Na+]", "note": "[Compound 40, sodium 4-(N-cyclohexylsulfamoyl)benzoate]", "values": [{"measurement": "increase of absolute number of Lin-Sca-1+ hematopoietic stem/progenitor cells (HSPC)", "setting": "[1]", "value": 2.29, "unit": "fold"}, {"measurement": "increase of number of LT-HSCs (CD150+CD48− SLAM+)", "setting": "[1]", "value": 2.61, "unit": "fold"}, {"measurement": "total cellularity (total cell)", "setting": "[1]", "value": "slight increase"}, {"measurement": "HSC frequency (1 in x of the original plated cells)", "setting": "HSCs (bone marrow MNCs)", "value": "37,524"}, {"measurement": "frequency of HSC, fold higher than control group", "setting": "HSCs (bone marrow MNCs)", "value": 3.0, "unit": "fold"}, {"measurement": "increase in the absolute number of CD34+CD49f+ cells", "setting": "[2]; 200 nM, 7 days in HSCs expansion media, versus control group", "value": "> 30", "unit": "%"}, {"measurement": "expansion of human HSCs in concentration gradient assay", "setting": "[2]; dose response, Fig. 4B", "value": "concentration related"}]}
